Measured values published in US10865384B2, “2,4,5-tri-substituted azole-based casein kinase 1 inhibitors as inducers for cardiomyogenesis” (AGENCY FOR SCIENCE, TECHNOLOGY AND RESEARCH, priority 2014, dated 2020).

How the values were obtained:
[1] = target: CK1δ (Homo sapiens (Human), UniProt P48730); test: LanthaScreen Eu kinase binding assay, CK1δ
[2] = target: p38α MAPK (Homo sapiens (Human), UniProt Q16539); test: HitHunter p38 MAP kinase binding assay; settings: read-out: p38α MAPK IC50 ± SEM
[3] = target: CK1ϵ (Homo sapiens (Human), UniProt P49674); test: LanthaScreen Eu kinase binding assay, CK1ϵ
[4] = system: hESC3 Nkx2.5eGFP/w cells; test: Differentiation in 96-U bottom ultra-low attachment well plates, GFP area imaging; assay type: cell-based, human; settings: 5 μM; for Average GFP %: after CHIR99021, read on day 14, GFP area over embryoid body size; for Average GFP μm^2 / Average Area μm^2: day 14; for Average Area μm^2: embryoid body size; for Cardiogenic properties: at specific time course (induction day 2 or 3)

Chain of CK1ϵ (P49674 whole entry): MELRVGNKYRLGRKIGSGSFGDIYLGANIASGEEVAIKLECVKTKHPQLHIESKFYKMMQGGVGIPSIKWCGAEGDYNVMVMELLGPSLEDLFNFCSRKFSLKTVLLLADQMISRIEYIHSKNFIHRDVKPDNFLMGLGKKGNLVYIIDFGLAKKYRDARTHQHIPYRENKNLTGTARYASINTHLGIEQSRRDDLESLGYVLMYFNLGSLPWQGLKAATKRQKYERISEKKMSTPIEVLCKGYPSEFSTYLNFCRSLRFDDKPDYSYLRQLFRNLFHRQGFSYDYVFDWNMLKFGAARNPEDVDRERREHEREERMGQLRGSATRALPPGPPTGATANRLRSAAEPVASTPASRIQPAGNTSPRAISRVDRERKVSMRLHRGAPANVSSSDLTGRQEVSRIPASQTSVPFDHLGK
Chain of p38α MAPK (Q16539 whole entry, looked up): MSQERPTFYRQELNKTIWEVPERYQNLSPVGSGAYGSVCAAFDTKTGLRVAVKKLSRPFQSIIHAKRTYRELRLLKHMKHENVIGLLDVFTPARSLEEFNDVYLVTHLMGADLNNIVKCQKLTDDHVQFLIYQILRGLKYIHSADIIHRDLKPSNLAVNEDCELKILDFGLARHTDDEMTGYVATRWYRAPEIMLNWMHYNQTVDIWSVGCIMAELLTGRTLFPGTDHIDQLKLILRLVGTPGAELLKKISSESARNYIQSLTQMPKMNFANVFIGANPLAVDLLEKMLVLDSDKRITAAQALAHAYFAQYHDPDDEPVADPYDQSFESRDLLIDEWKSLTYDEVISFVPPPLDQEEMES
Chain of CK1δ (P48730 whole entry): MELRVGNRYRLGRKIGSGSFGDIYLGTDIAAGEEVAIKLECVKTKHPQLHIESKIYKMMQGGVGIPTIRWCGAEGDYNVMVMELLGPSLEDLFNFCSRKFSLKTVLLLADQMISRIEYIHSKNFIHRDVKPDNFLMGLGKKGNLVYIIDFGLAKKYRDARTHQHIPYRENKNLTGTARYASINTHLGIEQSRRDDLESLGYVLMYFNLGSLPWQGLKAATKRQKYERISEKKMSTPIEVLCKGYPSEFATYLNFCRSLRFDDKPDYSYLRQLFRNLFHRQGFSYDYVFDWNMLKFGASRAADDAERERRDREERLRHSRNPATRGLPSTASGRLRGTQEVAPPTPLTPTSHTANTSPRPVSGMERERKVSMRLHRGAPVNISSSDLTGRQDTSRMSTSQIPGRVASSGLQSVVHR

SMILES: Cc1cccc(-c2nc(-c3ccc4ccccc4c3)[nH]c2-c2ccncc2)c1 [IM-01, 4-(2-(naphthalen-2-yl)-4(5)-(m-tolyl)-1H-imidazol-5(4)-yl)pyridine]
- inhibition at 1 µM [1]: 5%
- IC50 [2]: 98 ± 11 nM
- inhibition at 1 µM [3]: 6%

SMILES: O=C(Nc1cccc2cccnc12)c1ccc(N2C(=O)[C@@H]3[C@H](C2=O)[C@@H]2C=C[C@H]3C2)cc1 [IWR-1, reference compound]
- Average GFP % ([4]; Induction Day 2): 41.3%
- Average GFP μm^2 ([4]; Induction Day 2): 308.9 μm^2
- Average Area μm^2 ([4]; Induction Day 2): 763.0 μm^2
- Average GFP % ([4]; Induction Day 3): 51.1%
- Average GFP μm^2 ([4]; Induction Day 3): 426.3 μm^2
- Average Area μm^2 ([4]; Induction Day 3): 831.4 μm^2

SMILES: CCc1nc(-c2cccc(C)c2)c(-c2ccnc(NC(=O)c3ccccc3)c2)s1 [TAK 715, reference compound]
- IC50 ([3]; Table 3, read-out: IC50 Ck1ε): 107 nM

SMILES: Fc1ccc(-c2nc(-c3ccccc3)[nH]c2-c2ccncc2)cc1 [ZQX-14, 4-[4(5)-(4-fluorophenyl)-2-phenyl-1H-imidazol-5(4)-yl]pyridine]
- Average GFP % ([4]; Induction Day 2): 42.4%
- Average GFP μm^2 ([4]; Induction Day 2): 335.6 μm^2
- Average Area μm^2 ([4]; Induction Day 2): 810.7 μm^2
- Average GFP % ([4]; Induction Day 3): 5.9%
- Average GFP μm^2 ([4]; Induction Day 3): 91.6 μm^2
- Average Area μm^2 ([4]; Induction Day 3): 1474.4 μm^2

SMILES: Fc1ccc(-c2nc(-c3c(Cl)cccc3Cl)[nH]c2-c2ccncc2)cc1 [ZQX-15, 4-[2-(2,6-dichlorophenyl)-4(5)-(4-fluorophenyl)-1H-imidazol-5(4)-yl]pyridine]
- Average GFP % ([4]; Induction Day 2): 0.0%
- Average GFP μm^2 ([4]; Induction Day 2): 0.0 μm^2
- Average Area μm^2 ([4]; Induction Day 2): 129.4 μm^2
- Average GFP % ([4]; Induction Day 3): 0.0%
- Average GFP μm^2 ([4]; Induction Day 3): 0.0 μm^2
- Average Area μm^2 ([4]; Induction Day 3): 384.0 μm^2

SMILES: COc1ccccc1-c1nc(-c2ccc(F)cc2)c(-c2ccncc2)[nH]1 [ZQX-16, 4-[2-(2-methoxyphenyl)-4(5)-(4-fluorophenyl)-1H-imidazol-5(4)-yl]pyridine]
- Average GFP % ([4]; Induction Day 2): 32.8%
- Average GFP μm^2 ([4]; Induction Day 2): 184.7 μm^2
- Average Area μm^2 ([4]; Induction Day 2): 576.1 μm^2
- Average GFP % ([4]; Induction Day 3): 14.5%
- Average GFP μm^2 ([4]; Induction Day 3): 125.6 μm^2
- Average Area μm^2 ([4]; Induction Day 3): 950.3 μm^2

SMILES: Fc1ccc(-c2nc(-c3ccccc3Cl)[nH]c2-c2ccncc2)cc1 [ZQX-17, 4-[2-(2-chlorophenyl)-4(5)-(4-fluorophenyl)-1H-imidazol-5(4)-yl]pyridine]
- Average GFP % ([4]; Induction Day 2): 30.4%
- Average GFP μm^2 ([4]; Induction Day 2): 183.0 μm^2
- Average Area μm^2 ([4]; Induction Day 2): 586.7 μm^2
- Average GFP % ([4]; Induction Day 3): 24.6%
- Average GFP μm^2 ([4]; Induction Day 3): 232.7 μm^2
- Average Area μm^2 ([4]; Induction Day 3): 971.6 μm^2

SMILES: COc1cccc(OC)c1-c1nc(-c2ccc(F)cc2)c(-c2ccncc2)[nH]1 [ZQX-18, 4-[2-(2,6-dimethoxyphenyl)-4(5)-(4-fluorophenyl)-1H-imidazol-5(4)-yl]pyridine]
- Average GFP % ([4]; Induction Day 2): 27.5%
- Average GFP μm^2 ([4]; Induction Day 2): 207.3 μm^2
- Average Area μm^2 ([4]; Induction Day 2): 579.4 μm^2
- Average GFP % ([4]; Induction Day 3): 15.4%
- Average GFP μm^2 ([4]; Induction Day 3): 143.4 μm^2
- Average Area μm^2 ([4]; Induction Day 3): 1065.1 μm^2

SMILES: Fc1ccc(-c2nc(-c3c(F)cccc3Cl)[nH]c2-c2ccncc2)cc1 [ZQX-19, 4-[2-(2-chloro-6-fluorophenyl)-4(5)-(4-fluorophenyl)-1H-imidazol-5(4)-yl]pyridine]
- Cardiogenic properties [4]: higher cardiogenic properties as SB203580 and IWP-2
- Average GFP % ([4]; Induction Day 2): 2.4%
- Average GFP μm^2 ([4]; Induction Day 2): 46.4 μm^2
- Average Area μm^2 ([4]; Induction Day 2): 903.3 μm^2
- Average GFP % ([4]; Induction Day 3): 32.7%
- Average GFP μm^2 ([4]; Induction Day 3): 511.6 μm^2
- Average Area μm^2 ([4]; Induction Day 3): 1616.9 μm^2

SMILES: COc1cccc(F)c1-c1nc(-c2ccc(F)cc2)c(-c2ccncc2)[nH]1 [ZQX-20, 4-[2-(2-fluoro-6-methoxyphenyl)-4(5)-(4-fluorophenyl)-1H-imidazol-5(4)-yl]pyridine]
- Cardiogenic properties [4]: higher cardiogenic properties as SB203580 and IWP-2
- Average GFP % ([4]; Induction Day 2): 26.0%
- Average GFP μm^2 ([4]; Induction Day 2): 286.8 μm^2
- Average Area μm^2 ([4]; Induction Day 2): 1145.3 μm^2
- Average GFP % ([4]; Induction Day 3): 37.3%
- Average GFP μm^2 ([4]; Induction Day 3): 331.1 μm^2
- Average Area μm^2 ([4]; Induction Day 3): 996.2 μm^2

SMILES: Fc1ccc(-c2nc(-c3c(F)cccc3Br)[nH]c2-c2ccncc2)cc1 [ZQX-21, 4-[2-(2-bromo-6-fluorophenyl)-4(5)-(4-fluorophenyl)-1H-imidazol-5(4)-yl]pyridine]
- Average GFP % ([4]; Induction Day 2): 0.0%
- Average GFP μm^2 ([4]; Induction Day 2): 0.0 μm^2
- Average Area μm^2 ([4]; Induction Day 2): 1383.8 μm^2
- Average GFP % ([4]; Induction Day 3): 3.4%
- Average GFP μm^2 ([4]; Induction Day 3): 16.9 μm^2
- Average Area μm^2 ([4]; Induction Day 3): 974.3 μm^2

SMILES: Fc1ccc(-c2nc(-c3ccccc3Br)[nH]c2-c2ccncc2)cc1 [ZQX-22, 4-[2-(2-bromophenyl)-4(5)-(4-fluorophenyl)-1H-imidazol-5(4)-yl]pyridine]
- Average GFP % ([4]; Induction Day 2): 26.2%
- Average GFP μm^2 ([4]; Induction Day 2): 166.5 μm^2
- Average Area μm^2 ([4]; Induction Day 2): 623.0 μm^2
- Average GFP % ([4]; Induction Day 3): 24.4%
- Average GFP μm^2 ([4]; Induction Day 3): 284.4 μm^2
- Average Area μm^2 ([4]; Induction Day 3): 1165.0 μm^2

SMILES: O=[N+]([O-])c1cccc(Cl)c1-c1nc(-c2ccc(F)cc2)c(-c2ccncc2)[nH]1 [ZQX-25, 4-[2-(2-chloro-6-nitrophenyl)-4(5)-(4-fluorophenyl)-1H-imidazol-5(4)-yl]pyridine]
- Average GFP % ([4]; Induction Day 2): 0.0%
- Average GFP μm^2 ([4]; Induction Day 2): 0.0 μm^2
- Average Area μm^2 ([4]; Induction Day 2): 544.3 μm^2
- Average GFP % ([4]; Induction Day 3): 15.6%
- Average GFP μm^2 ([4]; Induction Day 3): 163.6 μm^2
- Average Area μm^2 ([4]; Induction Day 3): 1105.4 μm^2

SMILES: COc1cc(O)c(-c2nc(-c3ccc(F)cc3)c(-c3ccncc3)[nH]2)c(OC)c1 [ZQX-26, 2-[4(5)-(4-fluorophenyl)-5(4)-(pyridin-4-yl)-1H-imidazol-2-yl]-3,5-dimethoxyphenol]
- Average GFP % ([4]; Induction Day 2): 30.9%
- Average GFP μm^2 ([4]; Induction Day 2): 233.9 μm^2
- Average Area μm^2 ([4]; Induction Day 2): 757.8 μm^2
- Average GFP % ([4]; Induction Day 3): 8.3%
- Average GFP μm^2 ([4]; Induction Day 3): 88.2 μm^2
- Average Area μm^2 ([4]; Induction Day 3): 1152.7 μm^2

SMILES: O=[N+]([O-])c1ccccc1-c1nc(-c2ccc(F)cc2)c(-c2ccncc2)[nH]1 [ZQX-27, 4-[4(5)-(4-fluorophenyl)-2-(2-nitrophenyl)-1H-imidazol-5(4)-yl]pyridine]
- Average GFP % ([4]; Induction Day 2): 15.1%
- Average GFP μm^2 ([4]; Induction Day 2): 258.6 μm^2
- Average Area μm^2 ([4]; Induction Day 2): 1469.4 μm^2
- Average GFP % ([4]; Induction Day 3): 3.4%
- Average GFP μm^2 ([4]; Induction Day 3): 57.9 μm^2
- Average Area μm^2 ([4]; Induction Day 3): 1758.3 μm^2

SMILES: Cc1cccc(C)c1-c1nc(-c2ccc(F)cc2)c(-c2ccncc2)[nH]1 [ZQX-28, 4-[2-(2,6-dimethylphenyl)-4(5)-(4-fluorophenyl)-1H-imidazol-5(4)-yl]pyridine]
- Average GFP % ([4]; Induction Day 2): 0.0%
- Average GFP μm^2 ([4]; Induction Day 2): 0.0 μm^2
- Average Area μm^2 ([4]; Induction Day 2): 302.4 μm^2
- Average GFP % ([4]; Induction Day 3): 2.1%
- Average GFP μm^2 ([4]; Induction Day 3): 6.1 μm^2
- Average Area μm^2 ([4]; Induction Day 3): 271.7 μm^2

SMILES: Cc1ccccc1-c1nc(-c2ccc(F)cc2)c(-c2ccncc2)[nH]1 [ZQX-29, 4-[4(5)-(4-fluorophenyl)-2-(2-methylphenyl)-1H-imidazol-5(4)-yl]pyridine]
- Average GFP % ([4]; Induction Day 2): 28.6%
- Average GFP μm^2 ([4]; Induction Day 2): 277.1 μm^2
- Average Area μm^2 ([4]; Induction Day 2): 876.4 μm^2
- Average GFP % ([4]; Induction Day 3): 2.7%
- Average GFP μm^2 ([4]; Induction Day 3): 39.9 μm^2
- Average Area μm^2 ([4]; Induction Day 3): 1296.6 μm^2

SMILES: Fc1ccc(-c2nc(-c3c(F)cccc3I)[nH]c2-c2ccncc2)cc1 [ZQX-30, 4-[2-(2-fluoro-6-iodophenyl)-4(5)-(4-fluorophenyl)-1H-imidazol-5(4)-yl]pyridine]
- Average GFP % ([4]; Induction Day 2): 4.6%
- Average GFP μm^2 ([4]; Induction Day 2): 60.9 μm^2
- Average Area μm^2 ([4]; Induction Day 2): 1361.8 μm^2
- Average GFP % ([4]; Induction Day 3): 12.6%
- Average GFP μm^2 ([4]; Induction Day 3): 128.3 μm^2
- Average Area μm^2 ([4]; Induction Day 3): 1142.4 μm^2

SMILES: Nc1ccccc1-c1nc(-c2ccc(F)cc2)c(-c2ccncc2)[nH]1 [ZQX-31, 4-[2-(2-aminophenyl)-4(5)-(4-fluorophenyl)-1H-imidazol-5(4)-yl]pyridine]
- Average GFP % ([4]; Induction Day 2): 28.9%
- Average GFP μm^2 ([4]; Induction Day 2): 258.3 μm^2
- Average Area μm^2 ([4]; Induction Day 2): 891.2 μm^2
- Average GFP % ([4]; Induction Day 3): 5.1%
- Average GFP μm^2 ([4]; Induction Day 3): 96.0 μm^2
- Average Area μm^2 ([4]; Induction Day 3): 1662.3 μm^2

SMILES: COc1ccc([N+](=O)[O-])cc1-c1nc(-c2ccc(F)cc2)c(-c2ccncc2)[nH]1 [ZQX-32, 4-[2-(2-methoxy-5-nitrophenyl)-4(5)-(4-fluorophenyl)-1H-imidazol-5(4)-yl]pyridine]
- Average GFP % ([4]; Induction Day 2): 32.8%
- Average GFP μm^2 ([4]; Induction Day 2): 157.6 μm^2
- Average Area μm^2 ([4]; Induction Day 2): 483.6 μm^2
- Average GFP % ([4]; Induction Day 3): 4.6%
- Average GFP μm^2 ([4]; Induction Day 3): 41.0 μm^2
- Average Area μm^2 ([4]; Induction Day 3): 790.4 μm^2
